Source: publication PMC8270270, “Rosin Derivatives as a Platform for the Antiviral Drug Design” (Molecules, 2021)
Converted amounts (≈) assume the structure as drawn.

Tests used:
[1] = test system: A/California/07/09 ((A)H1N1pdm09) viral strain; format: cell-based, influenza virus
A549 cell culture = assay: Cytotoxicity, colorimetric MTT assay; format: cell-based, human
Method: The cytotoxicity of compounds (I–V) was assessed on A549 cell culture using a colorimetric MTT assay. A549 cells were incubated for 24 h at 37 °C, 5% CO2 with solutions of the studied compounds at various concentrations. Next, the cell monolayer was washed, and MTT solution was added in a volume of 0.1 mL at a concentration of […]. After 1 h of MTT contact with the cells, the wells were washed, and the formed formazan crystals were dissolved in 0.1 mL of DMSO. The results were recorded at 560 nm on a CLARIOstar Plus plate photometer (BMG LABTECH, Ortenberg, Germany). The IC50 was calculated using GraphPad Prism 6.0.

Candida tropicalis = assay: Disco-diffuse method, fungicidal activity; format: cell-based; conditions: for The Zone of Growth Inhibition / zone of inhibition at 1000 µg/mL / zone of inhibition at 5000 µg/mL / zone of inhibition at 10000 µg/mL / zone of inhibition at 25000 µg/mL / zone of inhibition at 50000 µg/mL: 48 h at 32 °C; for zone of inhibition at 1000 µg/mL / zone of inhibition at 5000 µg/mL / zone of inhibition at 10000 µg/mL / zone of inhibition at 25000 µg/mL / zone of inhibition at 50000 µg/mL: Candida tropicalis, read-out: The Zone of Growth Inhibition
Method: (§1) The determination of compounds (I, IV, VI–XI) effect concerning microorganisms was carried out using test strains of Escherichia coli, Bacillus subtilis, and Candida tropicalis. They are not only natural inhabitants of natural biocenoses but also a part of human microbiocenosis. Used microorganisms of bacteria were selected as representatives of the Gram-positive and Gram-negative human microbiota. The antibacterial activity of compounds (I, IV, VI–XI) was studied by the disco-diffuse method. The strain culture was transferred sterile from the mown agar into test tubes with 5 mL of nutrient medium to obtain a “night culture” 12–15 h before the experiment. Beef-extract agar (BEA) was used as a nutrient medium for the development of bacterial cells, and Sabouraud’s medium was used for yeast. Bacterial cultures were incubated in a thermostat at 37 °C, and yeast cultures at 32 °C. The melted BEA was poured sterile into Petri dishes (diameter 90 mm) and evenly distributed over the bottom of the dish, covered with a lid, and left on the table until it solidified completely. Next, the dishes with BEA were inoculated with a “lawn” by introducing a strain culture (suspension titer −1–2 × 10^8 CFU/mL) in an amount of 500 µL and evenly distributing it with a sterile spatula. The dishes were left for 60–90 min to dry the culture. Compounds (I, IV, VI–XI) were previously dissolved, and the sequential dilutions were applied to disks. Dimethyl sulfoxide (DMSO) was used as a solvent for the DAA. Water was used as a solvent for their potassium salts. […] This disk was impregnated with a solution of the test compound amounting to 100 μL and incubated in the dark for 24 h at 37 °C (Escherichia coli and Bacillus subtilis) and 48 h at 32 °C (Candida tropicalis). The solution diffuses, forming a concentration gradient of the test compound around the disc. After the incubation period, the inhibition zone or stimulation of microbial growth around the disk was measured in the experimental and control samples. A conclusion was made about the degree (bactericidal) toxicity of compounds. Solvent-treated disks (DMSO) were used as controls. The experiments were performed three times.

Bacillus subtilis = assay: Disco-diffuse method, antibacterial activity; format: cell-based; conditions: for The Zone of Growth Inhibition / zone of inhibition at 1000 µg/mL / zone of inhibition at 5000 µg/mL / zone of inhibition at 10000 µg/mL / zone of inhibition at 25000 µg/mL / zone of inhibition at 50000 µg/mL: 24 h at 37 °C; for zone of inhibition at 1000 µg/mL / zone of inhibition at 5000 µg/mL / zone of inhibition at 10000 µg/mL / zone of inhibition at 25000 µg/mL / MIC / zone of inhibition at 50000 µg/mL: Bacillus subtilis; for zone of inhibition at 1000 µg/mL / zone of inhibition at 5000 µg/mL / zone of inhibition at 10000 µg/mL / zone of inhibition at 25000 µg/mL / zone of inhibition at 50000 µg/mL: read-out: The Zone of Growth Inhibition; for MIC: from disc diffusion, read-out: minimum inhibitory concentration
Method: as §1

Escherichia coli = assay: Disco-diffuse method, antibacterial activity; format: cell-based; conditions: for The Zone of Growth Inhibition / zone of inhibition at 1000 µg/mL / zone of inhibition at 5000 µg/mL / zone of inhibition at 10000 µg/mL / zone of inhibition at 25000 µg/mL / zone of inhibition at 50000 µg/mL: 24 h at 37 °C; for zone of inhibition at 1000 µg/mL / zone of inhibition at 5000 µg/mL / zone of inhibition at 10000 µg/mL / zone of inhibition at 25000 µg/mL / MIC / zone of inhibition at 50000 µg/mL: Escherichia coli; for zone of inhibition at 1000 µg/mL / zone of inhibition at 5000 µg/mL / zone of inhibition at 10000 µg/mL / zone of inhibition at 25000 µg/mL / zone of inhibition at 50000 µg/mL: read-out: The Zone of Growth Inhibition; for MIC: from disc diffusion, read-out: minimum inhibitory concentration
Method: as §1

[2] = compound concentration 10 mg/mL
[3] = compound concentration 25 mg/mL
[4] = compound concentration 50 mg/mL

## CC(C)c1cc2c(cc1S(=O)(=O)[O-])C1(C)CCCC(C)(C(=O)[O-])C1CC2.[K+].[K+] (centres unmarked) [IV, Potassium 12-sulfodehydroabietate]
[1]
  Dose-dependent antiviral effect: did not significantly reduce the viral load
[1]; A549, in vitro, working concentration
  Antiviral activity (in words): did not show antiviral activity
A549 cell culture; A549, MTT assay
  Cytotoxicity (in words): weak toxicity
A549 cell culture; Homo sapiens, A549, 24 h, read-out: Determined IC50
  IC50: > 431 µg/mL
A549 cell culture; at the working concentrations used to assess antiviral activity
  Cell viability (in words): did not cause a significant decrease in cell viability
Candida tropicalis; 1-50 mg/mL
  Fungicidal activity (in words): did not show either antibacterial activity or fungicidal activity
Candida tropicalis; compound concentration 1 mg/mL
  The Zone of Growth Inhibition: 0 mm
Candida tropicalis; compound concentration 5 mg/mL
  The Zone of Growth Inhibition: 0 mm
Candida tropicalis; [2]
  The Zone of Growth Inhibition: 0 mm
Candida tropicalis; [3]
  The Zone of Growth Inhibition: 0 mm
Candida tropicalis; [4]
  The Zone of Growth Inhibition: 0 mm
Bacillus subtilis; 1-50 mg/mL
  Antibacterial activity (in words): did not show either antibacterial activity or fungicidal activity
Bacillus subtilis; compound concentration 1 mg/mL
  The Zone of Growth Inhibition: 0 mm
Bacillus subtilis; compound concentration 5 mg/mL
  The Zone of Growth Inhibition: 0 mm
Bacillus subtilis; [2]
  The Zone of Growth Inhibition: 0 mm
Bacillus subtilis; [3]
  The Zone of Growth Inhibition: 0 mm
Bacillus subtilis; [4]
  The Zone of Growth Inhibition: 0 mm
Escherichia coli; 1-50 mg/mL
  Antibacterial activity (in words): did not show either antibacterial activity or fungicidal activity
Escherichia coli; compound concentration 1 mg/mL
  The Zone of Growth Inhibition: 0 mm
Escherichia coli; compound concentration 5 mg/mL
  The Zone of Growth Inhibition: 0 mm
Escherichia coli; [2]
  The Zone of Growth Inhibition: 0 mm
Escherichia coli; [3]
  The Zone of Growth Inhibition: 0 mm
Escherichia coli; [4]
  The Zone of Growth Inhibition: 0 mm

## CC(C)c1cc2c(cc1Br)C1(C)CCCC(C)(C(=O)O)C1CC2 (centres unmarked) [X, 12-bromodehydroabietic acid]
Candida tropicalis; compound concentration 1 mg/mL
  zone of inhibition at 1000 µg/mL: 0 mm
Candida tropicalis; compound concentration 5 mg/mL
  zone of inhibition at 5000 µg/mL: 0 mm
Candida tropicalis; [2]
  zone of inhibition at 10000 µg/mL: 0 mm
Candida tropicalis; [3]
  zone of inhibition at 25000 µg/mL: 1.1 ± 0.24 mm
Candida tropicalis; [4]
  zone of inhibition at 50000 µg/mL: 1.9 ± 0.16 mm
Bacillus subtilis; compound concentration 1 mg/mL
  zone of inhibition at 1000 µg/mL: 3.1 ± 0.25 mm
Bacillus subtilis; compound concentration 5 mg/mL
  zone of inhibition at 5000 µg/mL: 9.5 ± 0.05 mm
Bacillus subtilis; [2]
  zone of inhibition at 10000 µg/mL: 9.7 ± 0.04 mm
Bacillus subtilis; [3]
  zone of inhibition at 25000 µg/mL: 10.5 ± 0.03 mm
Bacillus subtilis; 1-50 mg/mL
  MIC: 1000 µg/mL (≈ 2.64 mM)
Bacillus subtilis; [4]
  The Zone of Growth Inhibition: Does not diff
Escherichia coli; compound concentration 1 mg/mL
  zone of inhibition at 1000 µg/mL: 0.9 ± 0.1 mm
Escherichia coli; compound concentration 5 mg/mL
  zone of inhibition at 5000 µg/mL: 2 ± 0.07 mm
Escherichia coli; [2]
  zone of inhibition at 10000 µg/mL: 7.6 ± 0.03 mm
Escherichia coli; [3]
  zone of inhibition at 25000 µg/mL: 4.6 ± 0.05 mm
Escherichia coli; 1-50 mg/mL
  MIC: 1000 µg/mL (≈ 2.64 mM)
Escherichia coli; [4]
  The Zone of Growth Inhibition: Does not diff

## CC(C)C1=CC2=CC[C@@H]3[C@](C)(CCC[C@@]3(C)C(=O)O)[C@H]2CC1 [IX, Abietic acid]
Candida tropicalis; compound concentration 1 mg/mL
  zone of inhibition at 1000 µg/mL: 0 mm
Candida tropicalis; compound concentration 5 mg/mL
  zone of inhibition at 5000 µg/mL: 0 mm
Candida tropicalis; [2]
  zone of inhibition at 10000 µg/mL: 0 mm
Candida tropicalis; [3]
  zone of inhibition at 25000 µg/mL: 1 ± 0.11 mm
Candida tropicalis; [4]
  zone of inhibition at 50000 µg/mL: 1 ± 0.15 mm
Bacillus subtilis; compound concentration 1 mg/mL
  zone of inhibition at 1000 µg/mL: 1 ± 0.15 mm
Bacillus subtilis; compound concentration 5 mg/mL
  zone of inhibition at 5000 µg/mL: 2.1 ± 0.03 mm
Bacillus subtilis; [2]
  zone of inhibition at 10000 µg/mL: 2 ± 0.05 mm
Bacillus subtilis; [3]
  zone of inhibition at 25000 µg/mL: 4 ± 0.1 mm
Bacillus subtilis; [4]
  zone of inhibition at 50000 µg/mL: 5 ± 1.04 mm
Bacillus subtilis; 1-50 mg/mL
  MIC: 1000 µg/mL (≈ 3.31 mM)
Escherichia coli; compound concentration 1 mg/mL
  zone of inhibition at 1000 µg/mL: 0 mm
Escherichia coli; compound concentration 5 mg/mL
  zone of inhibition at 5000 µg/mL: 1 ± 0.1 mm
Escherichia coli; [2]
  zone of inhibition at 10000 µg/mL: 1 ± 0.1 mm
Escherichia coli; [3]
  zone of inhibition at 25000 µg/mL: 2 ± 0.24 mm
Escherichia coli; [4]
  zone of inhibition at 50000 µg/mL: 3 ± 0.14 mm
Escherichia coli; 1-50 mg/mL
  MIC: 5000 µg/mL (≈ 16.5 mM)

## CC(C)C1=CC2=CCC3C(C)(CO)CCCC3(C)C2CC1 (centres unmarked) [XI, Abietinol]
Candida tropicalis; compound concentration 1 mg/mL
  zone of inhibition at 1000 µg/mL: 0 mm
Candida tropicalis; compound concentration 5 mg/mL
  zone of inhibition at 5000 µg/mL: 1 ± 0.1 mm
Candida tropicalis; [2]
  zone of inhibition at 10000 µg/mL: 2 ± 0.1 mm
Candida tropicalis; [3]
  zone of inhibition at 25000 µg/mL: 4 ± 0.25 mm
Candida tropicalis; [4]
  zone of inhibition at 50000 µg/mL: 4.2 ± 0.15 mm
Bacillus subtilis; compound concentration 1 mg/mL
  zone of inhibition at 1000 µg/mL: 1 ± 0.15 mm
Bacillus subtilis; compound concentration 5 mg/mL
  zone of inhibition at 5000 µg/mL: 2.2 ± 0.05 mm
Bacillus subtilis; [2]
  zone of inhibition at 10000 µg/mL: 2 ± 0.15 mm
Bacillus subtilis; [3]
  zone of inhibition at 25000 µg/mL: 4 ± 0.12 mm
Bacillus subtilis; [4]
  zone of inhibition at 50000 µg/mL: 4 ± 0.09 mm
Bacillus subtilis; 1-50 mg/mL
  MIC: 1000 µg/mL (≈ 3.47 mM)
Escherichia coli; compound concentration 1 mg/mL
  zone of inhibition at 1000 µg/mL: 0 mm
Escherichia coli; compound concentration 5 mg/mL
  zone of inhibition at 5000 µg/mL: 1 ± 0.1 mm
Escherichia coli; [2]
  zone of inhibition at 10000 µg/mL: 1 ± 0.1 mm
Escherichia coli; [3]
  zone of inhibition at 25000 µg/mL: 3.5 ± 0.21 mm
Escherichia coli; [4]
  zone of inhibition at 50000 µg/mL: 5 ± 0.14 mm
Escherichia coli; 1-50 mg/mL
  MIC: 5000 µg/mL (≈ 17.3 mM)
